Values quoted from earlier work, collected in paper PMC9217999 (Targeted Oncology, 2022).

Assays:
[1] = cited from earlier work
[2] = system: pediatric cancer cell lines; settings: ref Roche data on file; cited from earlier work
[3] = system: unresectable/metastatic BRAF V600E/K-mutated melanoma; settings: combined with vemurafenib versus vemurafenib plus placebo, p < 0.0001; cited from earlier work

Compound: O=C(c1ccc(F)c(F)c1Nc1ccc(I)cc1F)N1CC(O)([C@@H]2CCCCN2)C1 [cobimetinib]
- Mean accumulation ratio in adults [1]: 2.4 fold
- Cytotoxic effects [2]: Cytotoxic effects
- Investigator-assessed progression-free survival (PFS) [3]: significantly improved
- Objective response rate (ORR) [3]: significantly improved
